This is an account of results in patent publication US8129371B2, “Thienopyrimidine and pyrazolopyrimidine compounds and their use as mTOR kinase and PI3 kinase inhibitors” (Wyeth LLC, priority 2007, dated 2012).

Assay [1] deals with breast line MDA468. Description: In vitro cell culture growth assay (MTS), MDA468. The class given is cell-based. The note with it: Homo sapiens, 72 h, MDA468 cells, three days after drug treatment. The method, boiled down: (§1)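 Growth is reported as percent of vehicle-treated control grown in the same plate, with viability determined by metabolic conversion of MTS dye and absorbance read at 490 nm. Compounds were applied one day after plating and left for three days.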

The target in assay [2] is T1, PI3K (Homo sapiens, UniProt P48736).
T1 construct: PI3 Kinase γ IC50; other: PI3 Kinase γ; other: PI3 Kinase γ isoform, fluorescence polarization
T1 sequence (P48736 whole entry, canonical isoform): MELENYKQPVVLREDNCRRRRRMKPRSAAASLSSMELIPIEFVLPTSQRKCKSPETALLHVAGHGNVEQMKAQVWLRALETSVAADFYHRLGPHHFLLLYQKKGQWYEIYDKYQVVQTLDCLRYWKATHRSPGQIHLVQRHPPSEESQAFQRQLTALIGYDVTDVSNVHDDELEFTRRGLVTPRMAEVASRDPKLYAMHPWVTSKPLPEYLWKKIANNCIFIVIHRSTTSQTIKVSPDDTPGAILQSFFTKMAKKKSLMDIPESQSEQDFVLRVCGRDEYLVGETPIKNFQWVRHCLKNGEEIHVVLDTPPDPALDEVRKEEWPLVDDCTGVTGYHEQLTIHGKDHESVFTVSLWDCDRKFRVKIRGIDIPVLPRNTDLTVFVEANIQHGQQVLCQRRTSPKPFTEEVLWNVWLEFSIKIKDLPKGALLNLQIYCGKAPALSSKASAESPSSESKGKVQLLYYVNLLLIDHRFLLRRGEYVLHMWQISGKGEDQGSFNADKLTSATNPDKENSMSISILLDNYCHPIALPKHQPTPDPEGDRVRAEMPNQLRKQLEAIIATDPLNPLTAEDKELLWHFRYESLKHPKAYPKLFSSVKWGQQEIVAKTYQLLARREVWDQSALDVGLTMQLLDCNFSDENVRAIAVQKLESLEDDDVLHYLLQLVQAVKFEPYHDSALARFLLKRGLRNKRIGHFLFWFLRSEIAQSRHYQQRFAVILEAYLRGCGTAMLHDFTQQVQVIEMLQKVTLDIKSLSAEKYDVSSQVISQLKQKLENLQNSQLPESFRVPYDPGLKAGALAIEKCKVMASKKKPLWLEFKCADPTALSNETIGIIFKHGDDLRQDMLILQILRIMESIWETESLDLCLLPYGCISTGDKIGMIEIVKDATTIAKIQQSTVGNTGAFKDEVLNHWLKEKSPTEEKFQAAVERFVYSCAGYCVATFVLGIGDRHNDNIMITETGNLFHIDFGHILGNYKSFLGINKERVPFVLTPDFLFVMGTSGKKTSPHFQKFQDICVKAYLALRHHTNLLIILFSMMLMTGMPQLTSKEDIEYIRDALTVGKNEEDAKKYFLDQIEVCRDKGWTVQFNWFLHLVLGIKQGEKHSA
Description: Fluorescence polarization assay for PI3K. The assay is classed as biochemical. The following applies: read-out: PI3 Kinase γ IC50. The essentials:
(§2)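 Fluorescence-polarization competition readout: after 30–60 min of PIP2/ATP turnover in 1% DMSO, a stop mix with GST-GRP (70 nM) and red probe (10 nM) was added.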

Assay [3] has as its target T2, PI3K (Homo sapiens, UniProt O00329).
T2 construct: PI3 Kinase δ IC50; other: PI3 Kinase δ; other: PI3 Kinase δ isoform, fluorescence polarization
T2 sequence (O00329 1-1044): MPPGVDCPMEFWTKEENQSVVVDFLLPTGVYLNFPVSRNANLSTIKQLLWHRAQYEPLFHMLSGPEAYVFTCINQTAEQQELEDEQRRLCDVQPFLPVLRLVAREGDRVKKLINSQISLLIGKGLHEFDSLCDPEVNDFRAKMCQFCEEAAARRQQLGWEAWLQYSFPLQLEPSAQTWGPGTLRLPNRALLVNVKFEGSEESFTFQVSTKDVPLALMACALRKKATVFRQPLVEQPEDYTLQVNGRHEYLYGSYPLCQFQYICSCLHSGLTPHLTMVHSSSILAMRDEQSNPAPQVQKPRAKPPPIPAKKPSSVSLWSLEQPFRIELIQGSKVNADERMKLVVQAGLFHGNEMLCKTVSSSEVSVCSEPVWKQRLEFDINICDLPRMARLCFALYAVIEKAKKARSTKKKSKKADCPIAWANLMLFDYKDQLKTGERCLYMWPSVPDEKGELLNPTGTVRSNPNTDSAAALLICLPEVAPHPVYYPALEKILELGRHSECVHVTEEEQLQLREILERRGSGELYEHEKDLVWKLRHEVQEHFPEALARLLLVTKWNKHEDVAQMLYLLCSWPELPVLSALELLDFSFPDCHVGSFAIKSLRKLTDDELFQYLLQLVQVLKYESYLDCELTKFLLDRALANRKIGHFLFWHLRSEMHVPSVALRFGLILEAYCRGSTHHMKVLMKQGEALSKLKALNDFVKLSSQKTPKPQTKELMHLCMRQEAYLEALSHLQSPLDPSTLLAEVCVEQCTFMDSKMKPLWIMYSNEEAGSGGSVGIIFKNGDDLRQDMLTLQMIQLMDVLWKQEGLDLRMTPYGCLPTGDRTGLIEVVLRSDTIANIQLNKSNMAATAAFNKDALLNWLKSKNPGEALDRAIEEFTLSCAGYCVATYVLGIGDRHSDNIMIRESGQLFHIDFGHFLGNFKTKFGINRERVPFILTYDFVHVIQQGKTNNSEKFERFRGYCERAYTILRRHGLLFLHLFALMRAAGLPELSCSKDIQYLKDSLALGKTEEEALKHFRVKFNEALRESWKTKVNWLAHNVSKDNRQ
Description: Fluorescence polarization assay for PI3K. The assay is classed as biochemical. The essentials: as §2

Assay [4] addresses T3, PI3K (Homo sapiens, UniProt P42336).
T3 construct: PI3 Kinase α IC50; other: PI3 Kinase α; other: PI3 Kinase α isoform, fluorescence polarization
Description: Fluorescence polarization assay for PI3K. The assay is classed as biochemical. The following applies: read-out: PI3 Kinase α IC50. The method, boiled down: as §2
Background: Fluorescence polarisation rises when a labelled molecule tumbles more slowly, as on binding a larger partner.

Assay [5] deals with T4, PI3K (Homo sapiens, UniProt P42338).
T4 construct: PI3 Kinase β IC50; other: PI3 Kinase β; other: PI3 Kinase β isoform, fluorescence polarization
T4 sequence (P42338 whole entry, canonical isoform): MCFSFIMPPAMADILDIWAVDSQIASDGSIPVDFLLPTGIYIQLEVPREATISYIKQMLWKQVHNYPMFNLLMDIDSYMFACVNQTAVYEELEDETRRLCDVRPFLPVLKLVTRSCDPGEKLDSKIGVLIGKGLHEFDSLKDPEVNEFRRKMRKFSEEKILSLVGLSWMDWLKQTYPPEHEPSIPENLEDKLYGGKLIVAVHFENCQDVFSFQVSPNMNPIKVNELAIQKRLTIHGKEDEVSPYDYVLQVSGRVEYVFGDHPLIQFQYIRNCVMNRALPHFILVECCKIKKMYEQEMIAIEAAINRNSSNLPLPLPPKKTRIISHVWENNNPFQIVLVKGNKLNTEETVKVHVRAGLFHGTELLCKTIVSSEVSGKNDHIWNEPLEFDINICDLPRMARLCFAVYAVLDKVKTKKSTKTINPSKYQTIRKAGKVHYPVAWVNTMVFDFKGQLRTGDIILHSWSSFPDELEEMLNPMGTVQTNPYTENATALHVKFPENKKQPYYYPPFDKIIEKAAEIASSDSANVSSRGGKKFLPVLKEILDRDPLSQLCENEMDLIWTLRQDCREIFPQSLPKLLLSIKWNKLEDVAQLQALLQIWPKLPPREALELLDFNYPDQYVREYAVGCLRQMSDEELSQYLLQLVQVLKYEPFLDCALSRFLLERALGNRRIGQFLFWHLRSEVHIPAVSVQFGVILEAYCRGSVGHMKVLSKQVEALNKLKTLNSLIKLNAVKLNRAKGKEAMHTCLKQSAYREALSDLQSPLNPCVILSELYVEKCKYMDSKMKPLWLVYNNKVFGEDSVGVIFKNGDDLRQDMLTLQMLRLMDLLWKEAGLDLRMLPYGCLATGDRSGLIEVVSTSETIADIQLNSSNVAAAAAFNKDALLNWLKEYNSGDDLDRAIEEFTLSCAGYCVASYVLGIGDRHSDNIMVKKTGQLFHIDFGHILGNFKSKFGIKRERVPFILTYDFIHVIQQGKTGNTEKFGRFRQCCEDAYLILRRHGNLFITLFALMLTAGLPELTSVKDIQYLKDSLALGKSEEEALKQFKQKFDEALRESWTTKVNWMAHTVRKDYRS
Description: Fluorescence polarization assay for PI3K. The assay is classed as biochemical. The method, boiled down: as §2

In assay [6] the test system is prostate line LNCap. Description: In vitro cell culture growth assay (MTS), LNCap. The assay is classed as cell-based. The following applies: Homo sapiens, LNCaP, 72 h, LNCap cells, three days after drug treatment. The essentials: as §1
Assay [7] addresses T5, Human mTOR (FLAG-TOR) (Homo sapiens, UniProt P42345).
T5 construct: FLAG
Description: Human mTOR kinase assay with purified enzyme, DELFIA format. The assay is classed as biochemical. The essentials:
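DELFIA readout: Eu-anti-P(T389)-S6K antibody (40 ng/mL, 1 h) on captured His6-S6K from the stopped reaction. Kinase step used purified FLAG-tagged human mTOR with test compound in HEPES (pH 7.4)/MnCl2/DTT buffer, 2 h at room temperature (linear 1–6 h), terminated by EDTA/EGTA.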

For assay [8], the system named is acute lymphoblastic leukemia xenograft. The following applies: NOS/SCID xenograft mouse model; Teachey et al, Blood 2006; cited from earlier work.
[9] abbreviates: PI3 Kinase γ isoform, fluorescence polarization.
[10] abbreviates: PI3 Kinase δ isoform, fluorescence polarization.
The mark [11] stands for this setting: PI3 Kinase α isoform, fluorescence polarization.
Where [12] appears, read: PI3 Kinase β isoform, fluorescence polarization.
The mark [13] stands for this setting: purified human mTOR enzyme, DELFIA format.

Like-named read-outs stand apart in the source and are kept apart here.

T3 sequence (P42336 whole entry, canonical isoform): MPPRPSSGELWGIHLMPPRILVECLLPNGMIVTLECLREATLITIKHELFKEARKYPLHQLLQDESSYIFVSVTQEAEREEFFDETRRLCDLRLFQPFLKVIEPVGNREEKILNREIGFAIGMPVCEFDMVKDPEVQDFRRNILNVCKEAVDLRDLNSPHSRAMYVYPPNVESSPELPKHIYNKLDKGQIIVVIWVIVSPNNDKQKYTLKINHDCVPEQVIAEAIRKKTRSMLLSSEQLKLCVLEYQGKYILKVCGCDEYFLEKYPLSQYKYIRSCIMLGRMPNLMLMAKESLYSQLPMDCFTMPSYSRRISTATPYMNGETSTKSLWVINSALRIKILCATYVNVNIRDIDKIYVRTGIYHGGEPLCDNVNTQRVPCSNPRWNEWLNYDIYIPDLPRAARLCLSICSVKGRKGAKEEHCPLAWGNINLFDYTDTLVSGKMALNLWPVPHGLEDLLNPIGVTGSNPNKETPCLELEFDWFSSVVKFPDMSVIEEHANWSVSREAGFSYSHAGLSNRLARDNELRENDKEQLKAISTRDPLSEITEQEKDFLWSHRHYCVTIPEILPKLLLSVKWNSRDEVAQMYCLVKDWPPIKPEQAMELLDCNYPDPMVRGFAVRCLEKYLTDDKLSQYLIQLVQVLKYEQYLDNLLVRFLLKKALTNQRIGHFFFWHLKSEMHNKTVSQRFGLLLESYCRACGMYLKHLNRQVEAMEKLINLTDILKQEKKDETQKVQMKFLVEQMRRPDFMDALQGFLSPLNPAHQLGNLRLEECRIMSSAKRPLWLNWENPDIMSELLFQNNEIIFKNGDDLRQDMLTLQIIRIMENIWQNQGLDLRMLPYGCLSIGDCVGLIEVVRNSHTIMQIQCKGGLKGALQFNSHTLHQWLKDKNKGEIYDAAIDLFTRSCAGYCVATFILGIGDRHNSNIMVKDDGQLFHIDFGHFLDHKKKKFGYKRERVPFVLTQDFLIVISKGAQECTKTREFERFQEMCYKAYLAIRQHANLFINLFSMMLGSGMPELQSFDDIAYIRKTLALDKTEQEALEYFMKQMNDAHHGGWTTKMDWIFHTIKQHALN

In general, IC50 refers to the midpoint of a concentration-inhibition curve. Consider `COC1CCC(n2ncc3c(N4CC5CCC(C4)O5)nc(-c4ccc(NC(=O)NC5CC5)cc4)nc32)CC1` (stereo not drawn) [Example 302, 1-cyclopropyl-3-{4-[1-(4-methoxycyclohexyl)-4-(8-oxa-3-azabicyclo[3.2.1]oct-3-yl)-1H-pyrazolo[3,4-d]pyrimidin-6-yl]phenyl}urea], for which the IC50 in assay [1] was 7 nM; in assay [2] (setting [9]), 8020 nM; in assay [3] (setting [10]), 1740 nM; in assay [4] (setting [11]) it was 3920 nM; in assay [5] (setting [12]), greater than 10000 nM; in assay [6], 2 nM. In addition, in assay [7] (setting [13]), half-maximal inhibition (IC50) was put at 0.3 nM.
On to `O=C(Nc1ccc(-c2nc(N3C[C@@H]4C[C@H]3CO4)c3cnn(CC(F)(F)F)c3n2)cc1)NC1CC1` [Example 296, 1-cyclopropyl-3-(4-{4-[(1S,4S)-2-oxa-5-azabicyclo[2.2.1]hept-5-yl]-1-(2,2,2-trifluoroethyl)-1H-pyrazolo[3,4-d]pyrimidin-6-yl}phenyl)urea], for which the half-inhibitory concentration (IC50) in assay [1] is 138 nM; in assay [2] (setting [9]), 1070 nM; in assay [3] (setting [10]), 6820 nM; in assay [4] (setting [11]), 4050 nM; in assay [5] (setting [12]) it was greater than 10000 nM; in assay [6] it was 67 nM. For the same molecule, 1.87 nM corresponded to half-maximal inhibition in assay [7] (setting [13]) (IC50).
On to `CNC(=O)Nc1ccc(-c2nc(N3CC4CCC(C3)O4)c3cnn(C4CCC5(CC4)OCCO5)c3n2)cc1` [Example 105, 1-(4-(4-(8-oxa-3-azabicyclo[3.2.1]octan-3-yl)-1-(1,4-dioxaspiro[4.5]decan-8-yl)-1H-pyrazolo[3,4-d]pyrimidin-6-yl)phenyl)-3-methylurea], for which the IC50 in assay [1] was 26 nM; in assay [2] (PI3 Kinase γ), greater than 10000 nM; in assay [3] (PI3 Kinase δ), 2380 nM; in assay [4] (PI3 Kinase α), 1180 nM; in assay [5] (PI3 Kinase β) it was greater than 10000 nM; in assay [7], 0.21 nM.
As to `CO[C@H]1C[C@@H]2CC[C@@H](C)[C@@](O)(O2)C(=O)C(=O)N2CCCC[C@H]2C(=O)O[C@H]([C@H](C)C[C@@H]2CC[C@@H](OC(=O)C(C)(CO)CO)[C@H](OC)C2)CC(=O)[C@H](C)/C=C(\C)[C@@H](O)[C@@H](OC)C(=O)[C@H](C)C[C@H](C)/C=C/C=C/C=C/1C` [Torisel], the “activity in xenograft mouse model of acute lymphoblastic leukemia” value in assay [8] is recorded as “active”.
In the case of `CN1CCN(c2ccc(NC(=O)Nc3ccc(-c4nc(N5CC6CCC(C5)O6)c5cnn(CC(F)(F)F)c5n4)cc3)cc2)CC1` [Example 261, 1-[4-(4-methylpiperazin-1-yl)phenyl]-3-{4-[4-(8-oxa-3-azabicyclo[3.2.1]oct-3-yl)-1-(2,2,2-trifluoroethyl)-1H-pyrazolo[3,4-d]pyrimidin-6-yl]phenyl}urea], the half-inhibitory concentration (IC50) turned out to be 2 nM in assay [1]; 945 nM in assay [3] (PI3 Kinase δ); 142 nM in assay [4] (PI3 Kinase α); 1 nM in assay [6]; 0.776 nM in assay [7].
For `O=C(Nc1ccc(-c2nc(N3CC4CCC(C3)O4)c3cnn(CC(F)(F)F)c3n2)cc1)OCCO` [Example 110, 2-hydroxyethyl {4-[4-(8-oxa-3-azabicyclo[3.2.1]oct-3-yl)-1-(2,2,2-trifluoroethyl)-1H-pyrazolo[3,4-d]pyrimidin-6-yl]phenyl}carbamate], the IC50 is 42 nM in assay [1]; 12000 nM in assay [2] (PI3 Kinase γ); 12000 nM in assay [3] (PI3 Kinase δ); 1050 nM in assay [4] (PI3 Kinase α); greater than 10000 nM in assay [5] (PI3 Kinase β); 2.3 nM in assay [6]. Further, the IC50 in assay [7] was found to be 0.6 nM.
Consider `COC1CCC(n2ncc3c(N4CC5CCC(C4)O5)nc(-c4ccc(NC(=O)Nc5ccc(N6CCN(C)CC6)cc5)cc4)nc32)CC1` (stereo not drawn) [Example 304, 1-{4-[1-(4-methoxycyclohexyl)-4-(8-oxa-3-azabicyclo[3.2.1]oct-3-yl)-1H-pyrazolo[3,4-d]pyrimidin-6-yl]phenyl}-3-[4-(4-methylpiperazin-1-yl)phenyl]urea], for which the IC50 in assay [1] is 1 nM; in assay [2] (setting [9]) it was 720 nM; in assay [3] (setting [10]), 200 nM; in assay [4] (setting [11]), 239 nM; in assay [5] (setting [12]), 2840 nM; in assay [6], less than 1 nM. For the same molecule, the IC50 in assay [7] (setting [13]) came to 0.265 nM.
For `CNC(=O)Nc1ccc(-c2nc(N3CC4CCC(C3)O4)c3cnn(Cc4ccccc4)c3n2)cc1` [Example 77, 1-{4-[1-benzyl-4-(8-oxa-3-azabicyclo[3.2.1]oct-3-yl)-1H-pyrazolo[3,4-d]pyrimidin-6-yl]phenyl}-3-methylurea], the 50% inhibitory concentration (IC50) in assay [1] is 700 nM; in assay [2] (PI3 Kinase γ), greater than 10000 nM; in assay [4] (PI3 Kinase α), 2100 nM; in assay [6] it was 120 nM; in assay [7], 2.2 nM.
The matching figures for `COC(=O)Nc1ccc(-c2nc(N3CC4CCC(C3)O4)c3cnn(C)c3n2)cc1` [Example 60, methyl {4-[1-methyl-4-(8-oxa-3-azabicyclo[3.2.1]oct-3-yl)-1H-pyrazolo[3,4-d]pyrimidin-6-yl]phenyl}carbamate]: 6800 nM, greater than 10000 nM, 3320 nM, 1050 nM and 28 nM.
In the same order, the values of `CN(C)c1cccc(NC(=O)Nc2ccc(-c3nc(N4CC5CCC(C4)O5)c4cnn(CC(F)(F)F)c4n3)cc2)c1` [Example 257, 1-[3-(dimethylamino)phenyl]-3-{4-[4-(8-oxa-3-azabicyclo[3.2.1]oct-3-yl)-1-(2,2,2-trifluoroethyl)-1H-pyrazolo[3,4-d]pyrimidin-6-yl]phenyl}urea] are 3 nM, 4240 nM, 344 nM, less than 1 nM and 1.8 nM.
The matching figures for `Nc1cccc(COC(=O)Nc2ccc(-c3nc(N4CC5CCC(C4)O5)c4cnn(CC(F)(F)F)c4n3)cc2)c1` [Example 254, 3-aminobenzyl {4-[4-(8-oxa-3-azabicyclo[3.2.1]oct-3-yl)-1-(2,2,2-trifluoroethyl)-1H-pyrazolo[3,4-d]pyrimidin-6-yl]phenyl}carbamate]: 200 nM, 12000 nM, 9650 nM, 6200 nM and 1620 nM.
